Results: PubChem BioAssay AID1963974 (Molecular Pharmacology Branch, DTP, NCI, 2024)
pIC50: −log10 of the molar value.

System: 648629-189-R-J1-PDC spheroids with HUVEC/MSC, viability
Assay: Anticancer human tumor 648629-189-R-J1-PDC patient-derived bladder carcinoma cell line growth inhibition [PI3K]
Details: for pIC50: curve of first compound; for viability, T/C: stronger effect = lower value
Source text: Combinatorial screen of targeted agents with the PI3K inhibitors inavolisib, alpelisib, duvelisib, and copanlisib in multi-cell type tumor spheroids
A high-throughput screen of multi-cell type tumor spheroids was designed to identify active combinations of targeted small molecules and PI3K pathway inhibitors. Complex spheroids include a stromal component modeled by human endothelial cells (HUVEC) and fibroblasts modeled by human mesenchymal stem cells (MSCs). The concentration ranges selected for each drug and investigational agent were based upon clinically achievable concentrations if the clinical Cmax of the agent was known.
Compounds. The drugs and investigational agents: inavolisib (NSC800729), alpelisib (NSC765974), duvelisib (NSC772469), copanlisib (NSC816437), ipatasertib (NSC767898), afuresertib (NSC778305), talazoparib (NSC767125), sapanisertib (NSC764658), selumetinib (NSC741078), tovorafenib (DAY101, NSC766906), vemurafenib (NSC761431), ravoxertinib (NSC781343), sotorasib (NSC818433), MRTX1133 (NSC 836407), abemaciclib (NSC 768073), palbociclib (NSC758247), venetoclax (NSC 766270), SY5609 (NSC837396), enzalutamide (NSC755605), and darolutamide (NSC825331), were obtained from the National Cancer Institute (NCI) Developmental Therapeutics Program Chemical Repository. The FDA-approved anticancer drug set is available from the NCI Developmental Therapeutics Program. […] The stock solutions were prepared in dimethyl sulfoxide (DMSO, Sigma-Aldrich, St. Louis, MO, cat. D2650) at 800-fold the tested concentration and stored at -70 degrees C prior to their use. All drugs and investigational agents were tested over a range starting from a high concentration at or near the clinical Cmax and decreasing in half-log increments. If the clinical Cmax for an agent had not been determined, the highest concentration tested was 10 microM.
Cell Culture. All cells were maintained in an incubator at 37 degrees C and 5% CO2 with 95% humidity. The PDC lines were cultured according to standard operating procedures established by the NCI PDMR (https://pdmr.cancer.gov/sops/default.htm). All PDCs were thawed and cultured in Matrigel-coated flasks prepared with a working solution of 1X Ham's F-12 nutrient mix, without supplementation (Invitrogen, Waltham, MA, cat. 11765054), 100 U/mL penicillin-streptomycin (Invitrogen, cat. 15140122), and 2.5% Matrigel (Corning Inc., Corning, NY, cat. 354248) for the first three passages. The 354836-022-R-J1-PDC, 475296-252-R-J1-PDC, and 997726-040-R-J2-PDC lines were cultured in 6A media, which includes advanced DMEM/F-12 (Thermo Fisher Scientific, cat. 12634028), 10 mM HEPES (Thermo Fisher Scientific, cat. 15630080), 1X GlutaMAX supplement (Thermo Fisher Scientific, cat. 35050061), 0.1 mg/mL primocin (InvivoGen, San Diego, CA, cat. ant-pm-2), 10% defined fetal bovine serum, heat inactivated (HyClone Laboratories Inc., Logan, UT, cat. SH30070.03HI), 50% L-WRN conditioned media (ATCC, cat. CRL-3276), 1.25 mM N-Acetyl-L-cysteine (Sigma-Aldrich, cat. A9165), 10 mM nicotinamide (Sigma-Aldrich, cat. N0636), 1X B-27 supplement (Thermo Fisher Scientific, cat. 17504044), 1X N-2 supplement (Thermo Fisher Scientific, cat. 17502048), and 10 microM Y-27632 dihydrochloride (Tocris Bioscience, Bristol, United Kingdom, cat. 1254). The 624824-186-R-J2-PDC line was cultured in 6C/Colon 1B media, which includes all 6A media components plus 50 ng/mL human EGF recombinant protein (Thermo Fisher Scientific, cat. PHG0311). […]

[1] = second compound 0.00316 µM, first compound 0.0316 µM
[2] = second compound 0.00316 µM, first compound 0.1 µM
[3] = second compound 0.01 µM, first compound 0.0316 µM
[4] = second compound 0.01 µM, first compound 0.1 µM
[5] = second compound 0.0316 µM, first compound 0.0316 µM
[6] = second compound 0.0316 µM, first compound 0.1 µM
[7] = second compound 0.1 µM, first compound 0.0316 µM
[8] = second compound 0.1 µM, first compound 0.1 µM
[9] = second compound 0.316 µM, first compound 0.0316 µM
[10] = second compound 0.316 µM, first compound 0.1 µM
[11] = second compound 1 µM, first compound 0.0316 µM
[12] = second compound 1 µM, first compound 0.1 µM
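Further: spheroids exposed to agents for seven days before reading.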
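Wherever viability, T/C is given: percent of vehicle control luminescence where 100% = DMSO treated spheroids.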

## CC(C)n1nc(-c2ccc3oc(N)nc3c2)c2c(N)ncnc21 + CC(Nc1ccc2c(c1)OCCn1cc(N3C(=O)OCC3C(F)F)nc1-2)C(N)=O
Second compound 0.00316 µM
  pIC50: 7.21
Second compound 0.01 µM
  pIC50: 7.23
Second compound 0.0316 µM
  pIC50: 7.23
Second compound 0.1 µM
  pIC50: 7.27
Second compound 0.316 µM
  pIC50: 7.50
Second compound 1 µM
  pIC50: 7.90
Second compound 0.00316 µM, first compound 0.000316 µM
  viability, T/C: 119%
Second compound 0.00316 µM, first compound 0.001 µM
  viability, T/C: 100%
Second compound 0.00316 µM, first compound 0.00316 µM
  viability, T/C: 94.7%
Second compound 0.00316 µM, first compound 0.01 µM
  viability, T/C: 90%
[1]
  viability, T/C: 68.8%
[2]
  viability, T/C: 36.2%
Second compound 0.01 µM, first compound 0.000316 µM
  viability, T/C: 102%
Second compound 0.01 µM, first compound 0.001 µM
  viability, T/C: 92.2%
Second compound 0.01 µM, first compound 0.00316 µM
  viability, T/C: 96.3%
Second compound 0.01 µM, first compound 0.01 µM
  viability, T/C: 95.5%
[3]
  viability, T/C: 74.3%
[4]
  viability, T/C: 30%
Second compound 0.0316 µM, first compound 0.000316 µM
  viability, T/C: 119%
Second compound 0.0316 µM, first compound 0.001 µM
  viability, T/C: 103%
Second compound 0.0316 µM, first compound 0.00316 µM
  viability, T/C: 98.3%
Second compound 0.0316 µM, first compound 0.01 µM
  viability, T/C: 80%
[5]
  viability, T/C: 75.9%
[6]
  viability, T/C: 32.6%
Second compound 0.1 µM, first compound 0.000316 µM
  viability, T/C: 89.1%
Second compound 0.1 µM, first compound 0.001 µM
  viability, T/C: 94.9%
Second compound 0.1 µM, first compound 0.00316 µM
  viability, T/C: 80.3%
Second compound 0.1 µM, first compound 0.01 µM
  viability, T/C: 82.9%
[7]
  viability, T/C: 72.5%
[8]
  viability, T/C: 25.3%
Second compound 0.316 µM, first compound 0.000316 µM
  viability, T/C: 81.6%
Second compound 0.316 µM, first compound 0.001 µM
  viability, T/C: 73.3%
Second compound 0.316 µM, first compound 0.00316 µM
  viability, T/C: 78.6%
Second compound 0.316 µM, first compound 0.01 µM
  viability, T/C: 74.6%
[9]
  viability, T/C: 50.2%
[10]
  viability, T/C: 24.8%
Second compound 1 µM, first compound 0.000316 µM
  viability, T/C: 65.6%
Second compound 1 µM, first compound 0.001 µM
  viability, T/C: 63.1%
Second compound 1 µM, first compound 0.00316 µM
  viability, T/C: 67.2%
Second compound 1 µM, first compound 0.01 µM
  viability, T/C: 48%
[11]
  viability, T/C: 39.8%
[12]
  viability, T/C: 17.9%

## CCCS(=O)(=O)Nc1ccc(F)c(C(=O)c2c[nH]c3ncc(-c4ccc(Cl)cc4)cc23)c1F + CC(Nc1ccc2c(c1)OCCn1cc(N3C(=O)OCC3C(F)F)nc1-2)C(N)=O
Second compound 0.00316 µM
  pIC50: 5.28
Second compound 0.01 µM
  pIC50: 5.26
Second compound 0.0316 µM
  pIC50: 5.33
Second compound 0.1 µM
  pIC50: 5.32
Second compound 0.316 µM
  pIC50: 5.35
Second compound 1 µM
  pIC50: 5.45
[1]
  viability, T/C: 108%
[2]
  viability, T/C: 105%
Second compound 0.00316 µM, first compound 0.316 µM
  viability, T/C: 105%
Second compound 0.00316 µM, first compound 1 µM
  viability, T/C: 106%
Second compound 0.00316 µM, first compound 3.16 µM
  viability, T/C: 87.5%
Second compound 0.00316 µM, first compound 10 µM
  viability, T/C: 0.36%
[3]
  viability, T/C: 112%
[4]
  viability, T/C: 91%
Second compound 0.01 µM, first compound 0.316 µM
  viability, T/C: 109%
Second compound 0.01 µM, first compound 1 µM
  viability, T/C: 129%
Second compound 0.01 µM, first compound 3.16 µM
  viability, T/C: 96.5%
Second compound 0.01 µM, first compound 10 µM
  viability, T/C: 0.28%
[5]
  viability, T/C: 104%
[6]
  viability, T/C: 111%
Second compound 0.0316 µM, first compound 0.316 µM
  viability, T/C: 93.3%
Second compound 0.0316 µM, first compound 1 µM
  viability, T/C: 112%
Second compound 0.0316 µM, first compound 3.16 µM
  viability, T/C: 76.5%
Second compound 0.0316 µM, first compound 10 µM
  viability, T/C: 0.32%
[7]
  viability, T/C: 98.3%
[8]
  viability, T/C: 92.3%
Second compound 0.1 µM, first compound 0.316 µM
  viability, T/C: 97.9%
Second compound 0.1 µM, first compound 1 µM
  viability, T/C: 98.9%
Second compound 0.1 µM, first compound 3.16 µM
  viability, T/C: 77.3%
Second compound 0.1 µM, first compound 10 µM
  viability, T/C: 2.36%
[9]
  viability, T/C: 94.5%
[10]
  viability, T/C: 83.4%
Second compound 0.316 µM, first compound 0.316 µM
  viability, T/C: 88.1%
Second compound 0.316 µM, first compound 1 µM
  viability, T/C: 84.5%
Second compound 0.316 µM, first compound 3.16 µM
  viability, T/C: 71.9%
Second compound 0.316 µM, first compound 10 µM
  viability, T/C: 0.44%
[11]
  viability, T/C: 63.8%
[12]
  viability, T/C: 60.6%
Second compound 1 µM, first compound 0.316 µM
  viability, T/C: 65.8%
Second compound 1 µM, first compound 1 µM
  viability, T/C: 64.9%
Second compound 1 µM, first compound 3.16 µM
  viability, T/C: 55.2%
Second compound 1 µM, first compound 10 µM
  viability, T/C: 0.54%
